# The supplement of paper PMC10307832
# What was measured:
# Experiment in all cases: relative viability (nuclei count vs DMSO), 5 days (fraction); higher = more cells survive
# Everolimus + Palbociclib = compound: CO[C@H]1C[C@@H]2CC[C@@H](C)[C@@](O)(O2)C(=O)C(=O)N2CCCC[C@H]2C(=O)O[C@H]([C@H](C)C[C@@H]2CC[C@@H](OCCO)[C@H](OC)C2)CC(=O)[C@H](C)/C=C(\C)[C@@H](O)[C@@H](OC)C(=O)[C@H](C)C[C@H](C)/C=C/C=C/C=C/1C [Everolimus] + CC(=O)c1c(C)c2cnc(Nc3ccc(N4CCNCC4)cn3)nc2n(C2CCCC2)c1=O [Palbociclib] (partner 0.5 µM)
# In short: (§1)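 Lung cancer cell lines were seeded in 1536-well plates and dosed by pin tool the next day, with either a single drug or a fixed anchor-drug dose combined with five library-drug doses (not always all listed) spaced in √10 steps. Five days later, one step fixed the cells and stained their nuclei (final 0.05% Triton X-100, 1% formaldehyde, 1 ug/ml Hoechst), and nuclei were counted on 4× images. Relative viability is the nuclei count in treated wells divided by the count in vehicle wells, and each value is the median of duplicate plates.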
# Everolimus + Bortezomib = compound: CO[C@H]1C[C@@H]2CC[C@@H](C)[C@@](O)(O2)C(=O)C(=O)N2CCCC[C@H]2C(=O)O[C@H]([C@H](C)C[C@@H]2CC[C@@H](OCCO)[C@H](OC)C2)CC(=O)[C@H](C)/C=C(\C)[C@@H](O)[C@@H](OC)C(=O)[C@H](C)C[C@H](C)/C=C/C=C/C=C/1C [Everolimus] + CC(C)C[C@H](NC(=O)[C@H](Cc1ccccc1)NC(=O)c1cnccn1)B(O)O [Bortezomib] (partner 0.002 µM)
# In short: as §1
# Everolimus + Foretinib = compound: CO[C@H]1C[C@@H]2CC[C@@H](C)[C@@](O)(O2)C(=O)C(=O)N2CCCC[C@H]2C(=O)O[C@H]([C@H](C)C[C@@H]2CC[C@@H](OCCO)[C@H](OC)C2)CC(=O)[C@H](C)/C=C(\C)[C@@H](O)[C@@H](OC)C(=O)[C@H](C)C[C@H](C)/C=C/C=C/C=C/1C [Everolimus] + COc1cc2c(Oc3ccc(NC(=O)C4(C(=O)Nc5ccc(F)cc5)CC4)cc3F)ccnc2cc1OCCCN1CCOCC1 [Foretinib] (partner 0.25 µM)
# In short: as §1
# Everolimus + Pictilisib = compound: CO[C@H]1C[C@@H]2CC[C@@H](C)[C@@](O)(O2)C(=O)C(=O)N2CCCC[C@H]2C(=O)O[C@H]([C@H](C)C[C@@H]2CC[C@@H](OCCO)[C@H](OC)C2)CC(=O)[C@H](C)/C=C(\C)[C@@H](O)[C@@H](OC)C(=O)[C@H](C)C[C@H](C)/C=C/C=C/C=C/1C [Everolimus] + CS(=O)(=O)N1CCN(Cc2cc3nc(-c4cccc5[nH]ncc45)nc(N4CCOCC4)c3s2)CC1 [Pictilisib] (partner 1 µM)
# In short: as §1
Cell Line,relative viability (Everolimus + Palbociclib; first compound 0.01 µM),relative viability (Everolimus + Palbociclib; first compound 0.03162 µM),relative viability (Everolimus + Palbociclib; first compound 0.1 µM),relative viability (Everolimus + Palbociclib; first compound 0.3162 µM),relative viability (Everolimus + Palbociclib; first compound 1 µM),relative viability (Everolimus + Bortezomib; first compound 0.01 µM),relative viability (Everolimus + Bortezomib; first compound 0.03162 µM),relative viability (Everolimus + Bortezomib; first compound 0.1 µM),relative viability (Everolimus + Bortezomib; first compound 0.3162 µM),relative viability (Everolimus + Bortezomib; first compound 1 µM),relative viability (Everolimus + Foretinib; first compound 0.01 µM),relative viability (Everolimus + Foretinib; first compound 0.03162 µM),relative viability (Everolimus + Foretinib; first compound 0.1 µM),relative viability (Everolimus + Foretinib; first compound 0.3162 µM),relative viability (Everolimus + Foretinib; first compound 1 µM),relative viability (Everolimus + Pictilisib; first compound 0.01 µM),relative viability (Everolimus + Pictilisib; first compound 0.03162 µM),relative viability (Everolimus + Pictilisib; first compound 0.1 µM),relative viability (Everolimus + Pictilisib; first compound 0.3162 µM),relative viability (Everolimus + Pictilisib; first compound 1 µM)
NCI-H2347,0.386,0.403,0.401,0.424,0.373,0.749,0.658,0.752,0.602,0.528,0.855,0.499,0.511,0.684,0.552,0.288,0.281,0.4,0.368,0.358
NCI-H2405,0.336,0.351,0.332,0.381,0.358,0.783,1.07,0.783,0.726,0.744,0.973,0.857,0.763,0.809,0.781,0.265,0.291,0.294,0.294,0.275
NCI-H3122,0.166,0.178,0.169,0.17,0.133,1.05,1.16,1.06,1.08,1.01,0.818,0.621,0.351,0.494,0.801,0.364,0.421,0.288,0.372,0.348
PC-3 [JPC-3],0.579,0.497,0.548,–,0.545,0.703,0.798,0.846,0.774,0.889,1.16,1.13,0.994,0.985,0.987,0.581,0.585,0.516,0.622,0.53
PC-14,0.43,0.368,0.336,0.301,0.295,0.876,0.84,0.864,0.658,0.713,0.986,0.968,0.928,0.756,0.854,0.411,0.191,0.239,0.21,0.342
RERF-LC-KJ,0.88,0.674,0.644,0.588,0.511,0.92,0.621,0.731,0.64,0.611,0.686,0.694,0.578,0.539,0.559,0.345,0.445,0.214,0.409,0.238
SK-LU-1,0.444,0.342,0.303,0.318,0.298,0.674,0.742,0.909,0.618,0.769,0.41,0.438,0.449,0.432,0.469,0.296,0.307,0.289,0.341,0.345
SW 1573,0.237,0.201,0.175,0.224,0.225,0.707,0.512,0.602,0.491,0.636,0.584,0.647,0.589,0.58,0.52,0.303,0.341,0.28,0.304,0.249
UMC-11,0.261,0.262,0.282,0.3,0.272,0.325,0.34,0.301,0.356,0.362,0.478,0.371,0.441,0.422,0.401,0.292,0.273,0.28,0.299,0.324
